In brackets after ≈: the same amount, converted by molar mass. Activity calls are given as the source filed them. The calls are words filed in the database; no cut-off is given here.
Experiments:
L929 = test: Growth inhibition of mouse L929 cells after 5 days by MTT assay; type: cell-based; conditions: L929, 120 h
[1] = Growth inhibition of human KB-3-1 cells after 5 days by MTT assay; type: functional, cell-based; conditions: KB 3-1, 120 h
[2] = Growth inhibition of rat kangaroo PtK2 cells after 5 days by MTT assay; type: cell-based; conditions: Potorous tridactylus, PtK2, 120 h
NHDF = test: Growth inhibition of human NHDF cells after 5 days by MTT assay; type: cell-based; conditions: 120 h
PtK2 = test: Disruption of microtubule network in potoroo PtK2 cells at 10 ug/mL after 16 hrs by immunofluorescence staining method; type: cell-based; conditions: Potorous tridactylus
PC-3 = test: Growth inhibition of human PC3 cells after 5 days by MTT assay; type: functional, cell-based; conditions: PC-3, 120 h
HUVEC = test: Antiangiogenic activity against human HUVEC cells assessed as suppression of tube formation after 20 hrs incubation by calcein staining-based fluorescent microscopy; type: functional, cell-based
Tubulin (Sus scrofa) = Tubulin (Sus scrofa) (UniProt P02554+P02550); test: Inhibition of pig porcine tubulin polymerization at 25 ug/mL by turbidimetric method; type: protein assay; conditions: at 25 µg/mL
Sequence of Tubulin (Sus scrofa) (P02550 whole entry, looked up): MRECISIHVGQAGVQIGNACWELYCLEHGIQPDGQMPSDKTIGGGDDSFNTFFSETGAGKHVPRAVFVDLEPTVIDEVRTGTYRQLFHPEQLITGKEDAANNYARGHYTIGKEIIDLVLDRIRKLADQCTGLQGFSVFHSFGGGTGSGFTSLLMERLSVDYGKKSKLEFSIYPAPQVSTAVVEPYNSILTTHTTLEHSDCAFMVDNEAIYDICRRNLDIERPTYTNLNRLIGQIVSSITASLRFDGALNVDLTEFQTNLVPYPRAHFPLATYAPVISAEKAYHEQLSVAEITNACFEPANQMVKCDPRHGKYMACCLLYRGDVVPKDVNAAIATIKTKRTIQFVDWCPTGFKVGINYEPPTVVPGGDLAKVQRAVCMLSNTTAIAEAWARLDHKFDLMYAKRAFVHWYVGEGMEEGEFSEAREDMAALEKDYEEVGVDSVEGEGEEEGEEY
Sequence of Tubulin (Sus scrofa) (P02554 whole entry, looked up): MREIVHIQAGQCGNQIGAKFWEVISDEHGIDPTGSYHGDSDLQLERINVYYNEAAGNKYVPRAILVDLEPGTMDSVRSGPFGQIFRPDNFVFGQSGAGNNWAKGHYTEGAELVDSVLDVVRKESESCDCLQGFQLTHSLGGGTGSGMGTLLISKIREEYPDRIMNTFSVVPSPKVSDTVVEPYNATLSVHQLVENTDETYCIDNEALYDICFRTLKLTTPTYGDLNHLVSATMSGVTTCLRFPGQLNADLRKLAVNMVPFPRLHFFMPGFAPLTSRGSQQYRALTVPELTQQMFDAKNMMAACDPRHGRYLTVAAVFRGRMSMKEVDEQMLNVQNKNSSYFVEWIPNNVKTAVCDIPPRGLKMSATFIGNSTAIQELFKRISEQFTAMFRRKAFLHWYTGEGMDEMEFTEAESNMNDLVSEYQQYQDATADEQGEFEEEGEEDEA

Compound	IC50 (L929)	IC50 [1]	IC50 [2]	IC50 (NHDF)	Activity (PtK2)	IC50 (PC-3)	MIC (HUVEC)	inhibition (Tubulin (Sus scrofa))
COc1ccc(-c2ncn(C)c2-c2cc(Cl)c(OC)c(Cl)c2)cc1F	2400 nM	1150 nM	4300 nM	7180 nM	Active	–	–	–
COc1ccc(-c2ncn(C)c2-c2cc(I)c(OC)c(OC)c2)cc1F	40 nM	90 nM	180 nM	40 nM	Active	–	–	–
COc1ccc(-c2ncn(C)c2-c2cc(F)c(OC)c(F)c2)cc1F	31000 nM	21000 nM	23000 nM	52000 nM	inactive	16000 nM	27000 nM (≈ 9.4 µg/mL)	inactive
COc1ccc(-c2c(-c3cc(Cl)c(OC)c(OC)c3)ncn2C)cc1N	135 nM	16 nM	70 nM	970 nM	Active	–	70 nM (≈ 0.0262 µg/mL)	–
COc1ccc(-c2ncn(C)c2-c2cc(I)c(OC)c(I)c2)cc1F	18 nM	3 nM	330 nM	3300 nM	Active	3 nM	80 nM (≈ 0.0451 µg/mL)	Active
COc1ccc(-c2ncn(C)c2-c2cc(F)c(OC)c(OC)c2)cc1F	10000 nM	2000 nM	5000 nM	7600 nM	Active	1800 nM	10000 nM (≈ 3.6 µg/mL)	–
COc1ccc(-c2ncn(C)c2-c2cc(Br)c(OC)c(OC)c2)cc1F	25 nM	5 nM	440 nM	175 nM	Active	70 nM	110 nM (≈ 0.0463 µg/mL)	Active
COc1ccc(-c2ncn(C)c2-c2cc(Br)c(OC)c(Br)c2)cc1F	4400 nM	14 nM	1200 nM	400 nM	Active	10 nM	270 nM (≈ 0.127 µg/mL)	Active
COc1ccc(-c2c(-c3cc(OC)c(OC)c(OC)c3)ncn2C)cc1N	220 nM	70 nM	450 nM	140 nM	Active	90 nM	290 nM (≈ 0.107 µg/mL)	Active
COc1ccc(-c2ncn(C)c2-c2cc(Cl)c(OC)c(OC)c2)cc1F	220 nM	190 nM	480 nM	240 nM	Active	–	–	–

Reference: ChEMBL document CHEMBL1909605, “Cytotoxic and antivascular 1-methyl-4-(3-fluoro-4-methoxyphenyl)-5-(halophenyl)-imidazoles” (Bioorg Med Chem Lett, 2011)
